The compounds below were run against T1, human GlyT-2 (Homo sapiens, UniProt Q9Y345) (assay: Assay of transport via GlyT-2 transporters: [3H]glycine uptake by stably transfected cultured cells). Conditions: cells stably transfected with human GlyT-2; 50 nM [3H]glycine; ten minutes at 37° C.; read-out: GlyT1 uptake IC50.
T1 construct: expressed in transfected cells; elsewhere 'preferably QT-6 cells derived from quail fibroblasts'
T1 sequence (Q9Y345 1-797): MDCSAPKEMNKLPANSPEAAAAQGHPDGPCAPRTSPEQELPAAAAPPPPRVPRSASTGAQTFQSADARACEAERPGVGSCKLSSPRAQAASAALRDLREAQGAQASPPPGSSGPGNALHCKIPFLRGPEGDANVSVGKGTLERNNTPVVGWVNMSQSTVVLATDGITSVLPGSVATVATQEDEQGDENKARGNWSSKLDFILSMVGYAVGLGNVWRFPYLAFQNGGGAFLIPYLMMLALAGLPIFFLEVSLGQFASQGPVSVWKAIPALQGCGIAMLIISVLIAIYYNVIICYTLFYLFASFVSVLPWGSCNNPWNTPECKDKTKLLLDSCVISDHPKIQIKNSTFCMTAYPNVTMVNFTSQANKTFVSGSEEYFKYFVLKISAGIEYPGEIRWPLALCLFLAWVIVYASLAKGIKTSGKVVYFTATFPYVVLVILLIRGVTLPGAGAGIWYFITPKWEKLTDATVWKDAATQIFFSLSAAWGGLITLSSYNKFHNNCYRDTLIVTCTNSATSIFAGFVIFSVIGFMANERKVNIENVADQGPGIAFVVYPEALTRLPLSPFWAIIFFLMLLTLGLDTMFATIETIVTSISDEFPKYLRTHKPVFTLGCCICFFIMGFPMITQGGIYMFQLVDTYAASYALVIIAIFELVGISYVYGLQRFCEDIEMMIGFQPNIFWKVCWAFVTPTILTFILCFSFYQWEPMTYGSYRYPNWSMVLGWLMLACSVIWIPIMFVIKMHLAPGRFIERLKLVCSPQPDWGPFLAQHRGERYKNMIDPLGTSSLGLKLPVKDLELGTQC
Type: cell-based
Protocol: This example illustrates a method for the measurement of glycine uptake by transfected cultured cells.
Cells stably transfected with human GlyT-2 (the homolog of the rat GlyT-2 described by Liu et al., J. Biological Chemistry, 268, 1993:22802-22808) were washed twice with HEPES buffered saline (HBS). The cells were then incubated ten minutes at 37° C., after which a solution containing 50 nM [^3H]glycine (17.5 Ci/mmol) and either (a) no potential competitor, (b) […] or (c) a concentration of a candidate drug. A range of concentrations of the candidate drug was used to generate data for calculating the concentration resulting in 50% of the effect (e.g., the IC50's which are the concentration of drug inhibiting glycine uptake by 50%). The cells were then incubated another ten minutes at 37° C., after which the cells were aspirated and washed three times with ice-cold HBS. The cells were solubilized in scintillant, shaken for thirty minutes, and the radioactivity in the cells was counted using a scintillation counter. Data were compared between the same cells contacted and not contacted by the candidate agent.

IC50 [µM] | Compound
0.0908 | COc1ccc(NC(=S)N[C@H](CC(C)C)C(=O)Nc2c(C)cccc2C)c([N+](=O)[O-])c1 [E51.1*]
0.0774 | Cc1ccccc1NC(=O)[C@H](NC(=S)Nc1ccccc1[N+](=O)[O-])c1ccccc1 [Example E4.2]
0.172 | CCOc1ccc(NC(=S)NC(C(=O)Nc2ccccc2C)c2ccccc2)c([N+](=O)[O-])c1 (stereo not shown) [Example E4.3, N-(2-methylphenyl)-2-[3-(4-ethoxy-2-nitrophenyl)-thioureido]-2-phenyl acetamide]
0.0838 | COc1ccc(NC(=S)NC(C(=O)Nc2ccccc2C)c2ccccc2)c([N+](=O)[O-])c1 (stereo not shown) [Example E4.4, N-(2-methylphenyl)-2-[3-(2-nitro-4-methoxyphenyl)-thioureido]-2-phenyl acetamide]
0.0522 | COc1ccc(NC(=S)NC(C(=O)Nc2c(C)cccc2C(C)C)c2ccccc2)c([N+](=O)[O-])c1 (stereo not shown) [Example E28.1, N-(2-isopropyl-6-methylphenyl)-2-[3-(4-methoxy-2-nitrophenyl)-thioureido]-2-phenyl acetamide]
0.0228 | COc1ccc(NC(=S)NC(C(=O)Nc2c(C)cccc2Cl)c2ccccc2)c([N+](=O)[O-])c1 (stereo not shown) [Example E29.1, N-(2-chloro-6-methylphenyl)-2-[3-(4-methoxy-2-nitrophenyl)-thioureido]-2-phenyl acetamide]
0.0492 | CCOc1ccc(NC(=S)NC(C(=O)Nc2c(C)cccc2C)c2ccccc2)c([N+](=O)[O-])c1 (stereo not shown) [Example E33.1, N-(2,6-dimethylphenyl)-2-[3-(4-ethoxy-2-nitrophenyl)-thioureido]-2-phenyl acetamide]
0.048 | Cc1cccc(C)c1NC(=O)C(NC(=S)Nc1ccccc1S(=O)(=O)N(C)C)c1ccccc1 (stereo not shown) [Example E33.2, N-(2,6-dimethylphenyl)-2-[3-(2-N,N-dimethylsulphonamidophenyl)-thioureido]-2-phenyl acetamide]
0.182 | Cc1cccc(C)c1NC(=O)C(NC(=S)Nc1ccc(OCCN(C)C)cc1[N+](=O)[O-])c1ccccc1 (stereo not shown) [Example E33.4, N-(2.6-dimethylphenyl)-2-[3-(4-(2-N,N-dimethylamino)ethoxy-2-nitrophenyl)-thioureido]-2-phenyl acetamide]
0.0142 | Cc1cccc(C)c1NC(=O)C(NC(=S)Nc1ccc(S(=O)(=O)N(C)C)cc1[N+](=O)[O-])c1ccccc1 (stereo not shown) [Example E33.5]
0.0344 | COc1ccc(NC(=S)NC(C(=O)Nc2c(C)cccc2C)c2ccccc2)c([N+](=O)[O-])c1 (stereo not shown) [Example E33.6, N-(2,6-dimethylphenyl)-2-[3-(4-methoxy-2-nitrophenyl)-thioureido]-2-phenyl acetamide]
0.115 | Cc1cccc(C)c1NC(=O)C(NC(=S)Nc1ccc(OCCN(C)C)cc1C(F)(F)F)c1ccccc1 (stereo not shown) [Example E33.8, N-(2.6-dimethylphenyl)-2-[3-(4-N,N-dimethylaminoethoxy-2-trifluoromethylphenyl)-thioureido]-2-phenyl acetamide]
0.112 | COc1ccc(NC(=S)NC(CC(C)C)C(=O)Nc2c(C)cccc2C)c([N+](=O)[O-])c1 (stereo not shown) [Example E51.3, N-(2.6-dimethylphenyl)-2-[3-(4-methoxy-2-nitrophenyl)-thioureido]-4-methylpentanamide]
